According to patent EP4759807A1, “PROTEOLYSIS TARGETING CHIMERA COMPOUND FOR DEGRADING IRAK4 AND USE THEREOF” (Shenzhen Zhongge Biological Technology Co., Ltd., priority 2023, dated 2025):
Structures can show the parent of a compound that is named as a salt.

Assays:
[1] = molecular target: T1, IRAK4 (Homo sapiens, UniProt Q9NWZ3); assay: WB detection of proteolysis (Western Blot, THP-1 cells); format: cell-based
T1 sequence (Q9NWZ3 1-460): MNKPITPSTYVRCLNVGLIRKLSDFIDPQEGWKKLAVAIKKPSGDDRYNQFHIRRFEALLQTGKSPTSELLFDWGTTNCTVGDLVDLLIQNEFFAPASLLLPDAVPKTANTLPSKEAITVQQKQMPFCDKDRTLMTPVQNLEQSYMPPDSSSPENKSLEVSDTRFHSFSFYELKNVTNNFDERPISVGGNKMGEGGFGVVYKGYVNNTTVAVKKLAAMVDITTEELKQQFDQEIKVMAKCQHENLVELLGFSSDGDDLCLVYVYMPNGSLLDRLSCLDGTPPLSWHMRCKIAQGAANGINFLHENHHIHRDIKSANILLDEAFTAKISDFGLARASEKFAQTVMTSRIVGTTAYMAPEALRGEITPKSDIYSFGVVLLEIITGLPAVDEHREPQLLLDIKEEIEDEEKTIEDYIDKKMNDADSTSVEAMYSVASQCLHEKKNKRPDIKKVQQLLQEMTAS
In short: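 IRAK4 level in RIPA lysates read by Western blot with Odyssey imaging; values from bell-shaped non-linear fit with two four-parameter sections (Plateau1, Plateau2, Dip, LogEC50_1/2, nH1/2).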

[2] = molecular target: T1, IRAK4; assay: Hibit fluorescence detection of proteolysis (IRAK4-HiBiT in HEK293T cells); format: cell-based; set-up: host or cells: HEK293T (ATCC); details: for Dmax: HEK-293T; for DC50: IRAK4-HiBiT, HEK293T cells, 24 h
In short: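 Degradation read-out: luminescence from lytic HiBiT detection (15 min, room temperature) after 24 h compound exposure (37 °C, 5% CO2) of HEK293T cells transiently expressing IRAK4 fused to a HiBiT tag. Data fitted to a bell-shaped four-parameter model giving two EC50 values.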

[3] = Western Blot, THP-1 cells, 24 h, read-out: DC50
[4] = Western Blot, THP-1 cells, 24 h, read-out: Dmax

Compound	Dmax ([1]; THP-1) [%]	DC50 ([1]; Western Blot, THP-1 cells, 24 h) [nM]	Dmax [2] [%]	DC50 [2] [nM]	DC50 [1, 3] [nM]	Dmax [1, 4] [%]
Cn1c(=O)n(C2CCC(=O)NC2=O)c2cccc(N3CCC4(CCN(C[C@H]5CC[C@H](n6cc(-n7cc(-n8ccc9cc(C(N)=O)cnc98)nn7)c(C(F)F)n6)CC5)C4)CC3)c21 (stereo partly drawn) [Example 97, 1-(1-(3-(difluoromethyl)-1-((1r,4r)-4-((8-(1-(2,6-dioxopiperidin-3-yl)-3-methyl-2-oxo-3,3-dihydro-1H-benzo[d]imidazol-4-yl)-2,8-diazaspiro[4.5]dec-2-yl)methyl)cyclohexyl)-1H-pyrazol-4-yl)-1H-1-1,2,3-triazolyl)-1H-pyrrolo[2,3-b]pyridine-5-carboxamide]	> 70	< 10	> 80	< 0.5	–	–
Cn1c(=O)n(C2CCC(=O)NC2=O)c2cccc(N3CCC(N4CCN(C[C@H]5CC[C@H](n6cc(-n7cc(-n8ccc9cc(C(N)=O)cnc98)nn7)c(C(F)F)n6)CC5)CC4)CC3)c21 (stereo partly drawn) [Example 98, 1-(1-(3-(difluoromethyl)-1-((1r,4r)-4-((4-(1-(2-(2,6-dioxopiperidin-3-yl)-3-methyl-2-oxo-3,3-dihydro-1H-benzo[d]imidazol-4-yl)piperidin-4-yl)piperazin-1-yl)methyl)cyclohexyl)-1H-pyrazol-4-yl)-1H-1-1,2,3-triazole)-1H-pyrrolo[2,3-b]pyridine-5-carboxamide]	–	–	> 80	< 0.5	< 10	> 70
Cn1c(=O)n(C2CCC(=O)NC2=O)c2cccc(N3CCC4(CCN(C[C@H]5CC[C@H](n6cc(-n7cc(-n8ccc9cc(C(N)=O)cnc98)nn7)c(C(F)F)n6)CC5)CC4)CC3)c21 (stereo partly drawn) [Example 99]	–	–	> 80	< 0.5	10 to 30	< 60
Cn1c(=O)n(C2CCC(=O)NC2=O)c2cccc(N[C@H]3CC[C@H](N(C)C[C@H]4CC[C@H](n5cc(-n6cc(-n7ccc8cc(C(N)=O)cnc87)nn6)c(C(F)F)n5)CC4)CC3)c21 (stereo partly drawn) [Example 102]	–	–	> 80	< 0.5	10 to 30	< 60
Cn1c(=O)n(C2CCC(=O)NC2=O)c2cccc(N3CCC4(CCN(C[C@H]5CC[C@H](n6cc(-n7cc(-n8ccc9cc(C(N)=O)cnc98)nn7)c(C(F)F)n6)CC5)CC4)C3)c21 (stereo partly drawn) [Example 103, 1-(1-(3-(difluoromethyl)-1-((1r,4r)-4-(2-(1-(2,6-dioxopiperidin-3-yl)-3-methyl-2-oxo-2,3-dihydro-1H-benzo[d]imidazol-4-yl)-2,8-diazaspiro[4.5]dec-8-yl)methyl)cyclohexyl)-1H-pyrazol-4-yl)-1H-1,2,3-triazol-4-yl]	–	–	> 80	< 0.5	< 10	< 60
Cn1c(=O)n(C2CCC(=O)NC2=O)c2cccc(N3CCC4(CCN(C[C@H]5CC[C@H](n6cc(-n7cc(-c8cnn9ccc(NCC%10CC%10)nc89)nn7)c(C(F)F)n6)CC5)CC4)CC3)c21 (stereo partly drawn) [Example 108]	–	–	> 80	< 0.5	< 10	> 70
Cn1c(=O)n(C2CCC(=O)NC2=O)c2cccc(N3CCC4(CCN(C[C@H]5CC[C@H](n6cc(-n7cc(-c8cnn9ccc(NCC%10CC%10)nc89)nn7)c(C(F)F)n6)CC5)C4)CC3)c21 (stereo partly drawn) [Example 113]	–	–	> 80	< 0.5	> 30	60 to 70
Cn1c(=O)n(C2CCC(=O)NC2=O)c2cccc(N3CCN(C[C@H]4CC[C@H](n5cc(-n6cc(-c7cnn8ccc(N9CCC[C@H](N)C9)nc78)nn6)c(C(F)F)n5)CC4)CC3)c21 (stereo partly drawn) [Example 115]	–	–	> 80	< 0.5	< 10	> 70
Cn1c(=O)n(C2CCC(=O)NC2=O)c2cccc(N3CCC4(CCN(C[C@H]5CC[C@H](n6cc(-n7cc(-c8cnn9ccc(N%10CCC[C@H](N)C%10)nc89)nn7)c(C(F)F)n6)CC5)CC4)C3)c21 (stereo partly drawn) [Example 116]	–	–	> 80	0.5 to 1	10 to 30	60 to 70
Cn1c(=O)n(C2CCC(=O)NC2=O)c2cccc(N[C@H]3CC[C@H](N(C)C[C@H]4CC[C@H](n5cc(-n6cc(-c7cnn8ccc(N9CCC[C@H](N)C9)nc78)nn6)c(C(F)F)n5)CC4)CC3)c21 (stereo partly drawn) [Example 118]	–	–	> 80	< 0.5	10 to 30	> 70
Cn1c(=O)n(C2CCC(=O)NC2=O)c2cccc(N3CCC4(CCN(C[C@H]5CC[C@H](n6cc(-n7cc(-c8cnn9ccc(N%10CCC[C@H](N)C%10)nc89)nn7)c(C(F)F)n6)CC5)C4)CC3)c21 (stereo partly drawn) [Example 119]	–	–	> 80	0.5 to 1	10 to 30	> 70
Cn1c(=O)n(C2CCC(=O)NC2=O)c2cccc(N3CCC4(CCN(C[C@H]5CC[C@H](n6cc(-n7cc(-c8cnn9ccc(N%10CCC[C@H](N)C%10)nc89)nn7)c(C(F)F)n6)CC5)CC4)CC3)c21 (stereo partly drawn) [Example 120]	–	–	> 80	0.5 to 1	< 10	> 70
Cn1c(=O)n(C2CCC(=O)NC2=O)c2cccc(N3CCC(N4CCN(C[C@H]5CC[C@H](n6cc(-n7cc(-c8cnn9ccc(N[C@H]%10CCCC[C@H]%10O)nc89)nn7)c(C(F)F)n6)CC5)CC4)CC3)c21 (stereo partly drawn) [Example 122]	–	–	> 80	< 0.5	< 10	> 70
Cn1c(=O)n(C2CCC(=O)NC2=O)c2cccc(N3CCC4(CCN(C[C@H]5CC[C@H](n6cc(-n7cc(-c8cnn9ccc(N%10CCC(C)(O)CC%10)nc89)nn7)c(C(F)F)n6)CC5)CC4)C3)c21 (stereo partly drawn) [Example 123]	–	–	> 80	< 0.5	< 10	< 60
Cn1c(=O)n(C2CCC(=O)NC2=O)c2cccc(N3CCC(N4CCN(C[C@H]5CC[C@H](n6cc(-n7cc(-c8cnn9ccc(N%10CCC(C)(O)CC%10)nc89)nn7)c(C(F)F)n6)CC5)CC4)CC3)c21 (stereo partly drawn) [Example 124]	–	–	> 80	< 0.5	< 10	60 to 70
Cn1c(=O)n(C2CCC(=O)NC2=O)c2cccc(N3CCC(N4CCN(C[C@H]5CC[C@H](n6cc(-n7cc(-c8cnn9ccc(NCCC(C)(C)O)nc89)nn7)c(C(F)F)n6)CC5)CC4)CC3)c21 (stereo partly drawn) [Example 125]	–	–	> 80	< 0.5	< 10	> 70
Cn1c(=O)n(C2CCC(=O)NC2=O)c2cccc(N3CCC4(CCN(C[C@H]5CC[C@H](n6cc(-n7cc(-c8cnn9ccc(NCCC(C)(C)O)nc89)nn7)c(C(F)F)n6)CC5)CC4)CC3)c21 (stereo partly drawn) [Example 126]	–	–	> 80	< 0.5	< 10	> 70
Cn1c(=O)n(C2CCC(=O)NC2=O)c2cccc(N3CCC(N4CCN(C[C@H]5CC[C@H](n6cc(-n7cc(-c8cnn9ccc(N%10CCNCC%10)nc89)nn7)c(C(F)F)n6)CC5)CC4)CC3)c21 (stereo partly drawn) [Example 127, 3-(4-(4-(4-(((1r,4r)-4-(3-(difluoromethyl)-4-(4-(5-(piperazin-1-yl))pyrazolo[1,5-a]pyrimidin-3-yl)-1H-1,2,3-triazol-1-yl)-1H-pyrazol-1-yl)cyclohexyl)methyl)piperazin-1-yl)piperidin-1-yl)-3-methyl-2-oxo-2,3-dihydro-1H-benzo[d]imidazol-1-yl)piperidine-2,6-dione dihydrochloride]	–	–	> 80	< 0.5	10 to 30	> 70
Cn1c(=O)n(C2CCC(=O)NC2=O)c2cccc(N3CCC4(CCN(C[C@H]5CC[C@H](n6cc(-n7cc(-c8cnn9ccc(N%10CCNCC%10)nc89)nn7)c(C(F)F)n6)CC5)C4)CC3)c21 (stereo partly drawn) [Example 128, 3-(4-(2-(((1r,4r)-4-(3-(difluoromethyl)-4-(4-(5-(piperazin-1-yl)pyrazolo[1,5-a]pyrimidin-3-yl)-1H-1,2,3-triazol-1-yl)-1H-pyrazol-1-yl)cyclohexyl)methyl)-2,8-diazaspiro[4.5]dec-8-yl)-3-methyl-2-oxo-2,3-dihydro-1H-benzo[d]imidazol-1-yl)piperidine-2,6-dione dihydrochloride]	–	–	> 80	< 0.5	< 10	> 70
Cn1c(=O)n(C2CCC(=O)NC2=O)c2cccc(N3CCN(C[C@H]4CC[C@H](n5cc(-n6cc(-c7cnn8ccc(N9CCNCC9)nc78)nn6)c(C(F)F)n5)CC4)CC3)c21 (stereo partly drawn) [Example 132, 3-(4-(1R,4R)-4-(3-difluoromethyl)-4-(4-(5-(piperazin-1-yl)pyrazolo[1,5-a]pyrimidin-3-yl)-1H-1,2,3-triazol-1-yl)-1H-pyrazol-1-yl)cyclohexyl)methyl)piperazin-1-yl)-3-methyl-2-oxo-2,3-dihydro-1H-benzoimidazol-1-yl)piperidine-2,6-dione dihydrochloride]	–	–	> 80	0.5 to 1	< 10	60 to 70
Cn1c(=O)n(C2CCC(=O)NC2=O)c2cccc(N3CCC(N4CCN(C[C@H]5CC[C@H](n6cc(-n7cc(-c8cnn9ccc(N%10CCC(O)CC%10)nc89)nn7)c(C(F)F)n6)CC5)CC4)CC3)c21 (stereo partly drawn) [Example 135]	–	–	> 80	< 0.5	< 10	> 70
